“And” between values parts separate entries of the source, which are not always exact repeats. Identical values can stand only once.
Test system: 521955-158-R2-J5-PDC spheroids with stroma, growth inhibition
Experiment: Anticancer human tumor 521955-158-R2-J5-PDC patient-derived pancreatic carcinoma cell line growth inhibition [TAK]
Conditions: for viability, T/C: stronger effect = lower value
Source text: Combinatorial screen of targeted agents with TAK-243 and ipatasertib in multi-cell type tumor spheroids
A high-throughput screen of multi-cell type tumor spheroids was designed to identify active combinations of targeted small molecules and TAK-243 or ipatasertib. Complex spheroids include a stromal component modeled by human endothelial cells (HUVEC) and fibroblasts modeled by human mesenchymal stem cells (MSCs). The concentration ranges selected for each drug and investigational agent were based upon clinically achievable concentrations if the clinical Cmax of the agent was known.
Compounds. The drugs and investigational agents: TAK-243 (785004), ipatasertib (767898), everolimus (733504), selumetinib (741078), bortezomib (756655), trametinib (758246), ixazomib (758254), vemurafenib (761431), dabrafenib (764134), sapanisertib (764658), alpelisib (765974), and copanlisib (816437), were obtained from the National Cancer Institute (NCI) Developmental Therapeutics Program Chemical Repository. The FDA-approved anticancer drug set is available from the NCI Developmental Therapeutics Program. […] The stock solutions were prepared in dimethyl sulfoxide (DMSO, Sigma-Aldrich, St. Louis, MO, cat. D2650) at 800-fold the tested concentration and stored at -70 degrees C prior to their use. All drugs and investigational agents were tested over a range starting from a high concentration at or near the clinical Cmax and decreasing in half-log increments. If the clinical Cmax for an agent had not been determined, the highest concentration tested was 10 microM.
NCI60 Cell Culture. NCI60 cell lines were obtained from the NCI Developmental Therapeutics Program Tumor Repository. For each lot of cells, the Repository performed Applied Biosystems AmpFLSTR Identifiler testing with PCR amplification to confirm consistency with the published Identifier STR profile for each cell line. Cells were kept in continuous culture for no more than 20 passages. The optimal seeding densities for each of the cell lines at each time point assessed were determined prior to performing the concentration response studies. Briefly, the NCI60 human tumor lines were grown as monolayers in RPMI 1640 medium supplemented with 10% FBS and 2 mmol/L L-glutamine.
An additional 2 lines were from the NCI60 cell line panel including melanomas, MALME-3M and SK-MEL-2. Pooled donor human umbilical vein endothelial cells (HUVEC, Lonza, cat. CC-2519) and human mesenchymal stem cells (hMSC, Lonza, cat. PT-2501) were purchased from Lonza (Walkersville, MD).
PDMR cell lines were grown in complete medium (DC medium): Dulbecco's modified Eagle's medium (DMEM)/F12 supplemented with 5% fetal bovine serum (FBS), 2 mM L-glutamine, 100 U/mL penicillin and 100 µg/ml streptomycin, 0.4 µg/ml hydrocortisone, 10 ng/ml epidermal growth factor (EGF) recombinant human protein, 24 µg/mL adenine, and 0.1 mg/mL primocin. During culture from frozen stock vials, PDMR cells were cultured in the same medium containing 10 µM Y-27632 (see Table 3). The PDCs were cultured in complete DMEM/F12 media without 10 microM Y-27632 dihydrochloride for at least two passages prior to the screen. The pooled donor HUVEC and hMSC were cultured in endothelial cell growth medium 2 (PromoCell, Heidelberg, Germany, cat. C-22011) and mesenchymal stem cell growth medium 2 (PromoCell, cat. C-28009), respectively. For all experiments, HUVEC and hMSC were used at passages </=5.
For the pre-screen, cell seeding densities were determined from a titration spanning the range from 5,000 to 313 cells per well. The mct-spheroids including 60% malignant cells, 25% HUVEC and 15% MSC dispensed as a mixture into U-bottom Ultra-Low Attachment 384-well plates (Corning, NY)
High-throughput Drug Combination Screening.
Prior to their inoculation into 384-well plates, malignant cells, HUVEC, and hMSC were removed from T flasks using TrypLE express (Thermo Fisher Scientific, cat. 12605036) and harvested by centrifugation for 5 min at 233 x g. […]

[1] = curve of first compound, second compound 0.3 µM
[2] = curve of first compound, second compound 0.949 µM
[3] = curve of first compound, second compound 3 µM
[4] = curve of first compound, second compound 9.49 µM
[5] = curve of first compound, second compound 30 µM
[6] = second compound 0.3 µM, first compound 0.000316 µM
[7] = second compound 0.3 µM, first compound 0.001 µM
[8] = second compound 0.3 µM, first compound 0.00316 µM
[9] = second compound 0.3 µM, first compound 0.01 µM
[10] = second compound 0.949 µM, first compound 0.000316 µM
[11] = second compound 0.949 µM, first compound 0.001 µM
[12] = second compound 0.949 µM, first compound 0.00316 µM
[13] = second compound 0.949 µM, first compound 0.01 µM
[14] = second compound 3 µM, first compound 0.000316 µM
[15] = second compound 3 µM, first compound 0.001 µM
[16] = second compound 3 µM, first compound 0.00316 µM
[17] = second compound 3 µM, first compound 0.01 µM
[18] = second compound 9.49 µM, first compound 0.000316 µM
[19] = second compound 9.49 µM, first compound 0.001 µM
[20] = second compound 9.49 µM, first compound 0.00316 µM
[21] = second compound 9.49 µM, first compound 0.01 µM
[22] = second compound 30 µM, first compound 0.000316 µM
[23] = second compound 30 µM, first compound 0.001 µM
[24] = second compound 30 µM, first compound 0.00316 µM
[25] = second compound 30 µM, first compound 0.01 µM
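Also: spheroids exposed to drugs for seven days before readout.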
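For viability, T/C in this document: 100% = DMSO vehicle control viability.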

Structure (SMILES)	IC50 [1] [nM]	IC50 [2] [nM]	IC50 [3] [nM]	IC50 [4] [nM]	IC50 [5] [nM]	viability, T/C [6] [%]	viability, T/C [7] [%]	viability, T/C [8] [%]	viability, T/C [9] [%]	viability, T/C [10] [%]	viability, T/C [11] [%]	viability, T/C [12] [%]	viability, T/C [13] [%]	viability, T/C [14] [%]	viability, T/C [15] [%]	viability, T/C [16] [%]	viability, T/C [17] [%]	viability, T/C [18] [%]	viability, T/C [19] [%]	viability, T/C [20] [%]	also measured
CC(C)CC(NC(=O)C(Cc1ccccc1)NC(=O)c1cnccn1)B(O)O (configuration not stated) + CC(C)NCC(C(=O)N1CCN(c2ncnc3c2C(C)CC3O)CC1)c1ccc(Cl)cc1	5.69	5.25	4.97	5.95	3.86	91.4	92.8	93.9	7.88	78.1	82.6	91.8	7.37	76.6	78.2	81.8	7.09	111	94.3	113	viability, T/C (second compound 0.3 µM, first compound 31.6 pM): 105%; viability, T/C (second compound 0.3 µM, first compound 0.0001 µM): 101%; viability, T/C (second compound 0.949 µM, first compound 31.6 pM): 80.2%; viability, T/C (second compound 0.949 µM, first compound 0.0001 µM): 85.4%; viability, T/C (second compound 3 µM, first compound 31.6 pM): 70%; viability, T/C (second compound 3 µM, first compound 0.0001 µM): 81.6%; viability, T/C (second compound 9.49 µM, first compound 31.6 pM): 100%; viability, T/C (second compound 9.49 µM, first compound 0.0001 µM): 110%; viability, T/C [21]: 4.23%; viability, T/C (second compound 30 µM, first compound 31.6 pM): 54.3%; viability, T/C (second compound 30 µM, first compound 0.0001 µM): 64.6%; viability, T/C [22]: 56.2%; viability, T/C [23]: 56.7%; viability, T/C [24]: 68.6%; viability, T/C [25]: 1.83%
CC(C)CC(NC(=O)CNC(=O)c1cc(Cl)ccc1Cl)B1OC(=O)CC(CC(=O)O)(C(=O)O)O1 (configuration not stated) + CC(C)NCC(C(=O)N1CCN(c2ncnc3c2C(C)CC3O)CC1)c1ccc(Cl)cc1	39	30	26.8	25.7	15.2	129	114	104	116	85.2	98.6	87.6	94.2	77.8	78	87	89.6	123	103	115	viability, T/C (second compound 0.3 µM, first compound 0.0316 µM): 59%; viability, T/C (second compound 0.3 µM, first compound 0.1 µM): 8.82%; viability, T/C (second compound 0.949 µM, first compound 0.0316 µM): 48.1%; viability, T/C (second compound 0.949 µM, first compound 0.1 µM): 6.65%; viability, T/C (second compound 3 µM, first compound 0.0316 µM): 44.4%; viability, T/C (second compound 3 µM, first compound 0.1 µM): 6.08%; viability, T/C [21]: 122%; viability, T/C (second compound 9.49 µM, first compound 0.0316 µM): 35.7%; viability, T/C (second compound 9.49 µM, first compound 0.1 µM): 4.11%; viability, T/C [22]: 69.3%; viability, T/C [23]: 69.1%; viability, T/C [24]: 72.4%; viability, T/C [25]: 66.4%; viability, T/C (second compound 30 µM, first compound 0.0316 µM): 21.3%; viability, T/C (second compound 30 µM, first compound 0.1 µM): 2.31%
CC(C)CC(NC(=O)C(Cc1ccccc1)NC(=O)c1cnccn1)B(O)O (configuration not stated)																					viability, T/C (compound 31.6 pM): 94.9% and 116%; viability, T/C (compound 0.0001 µM): 90.7% and 91.3%; viability, T/C (compound 0.000316 µM): 91.3% and 92.2%; viability, T/C (compound 0.001 µM): 95.1% and 117%; viability, T/C (compound 0.00316 µM): 105% and 99.9%; viability, T/C (compound 0.01 µM): 12.7% and 7.91%; IC50 (curve of compound): 5.96 nM and 6.03 nM

From PubChem BioAssay AID2060353 (Molecular Pharmacology Branch, DTP, NCI, 2025)
